Reference: PMC9133015 (Nature Communications, 2022)
Values joined by “and” are separate entries in the source; they are usually repeats but may differ in a detail not shown here. Identical values can stand only once.

Legend:
[1] = tested on: RWPE-1 cells; experiment: Anti-proliferation activity assay (CCK8, 72 h); type: cell-based; conditions: for optical density / Relative proliferation rate (%) mean / Relative proliferation rate (%): RWPE1; for optical density / Relative proliferation rate (%): replicates
[2] = tested on: 22Rv1 cells; experiment: Colony formation assay; type: cell-based, human; conditions: replicates
[3] = tested on: DU145 cells; experiment: Colony formation assay; type: cell-based, human; conditions: replicates
[4] = tested on: PC-3 cells; experiment: Colony formation assay; type: cell-based, human; conditions: replicates
[5] = tested on: 22Rv1 cells; experiment: Invasion assay (transwell); type: cell-based, human; conditions: for Cell invasion (cell number): replicates
[6] = tested on: 22Rv1 cells; experiment: Real-time quantitative PCR (RRS1, GRWD1, CCNG2, YPEL3 mRNA); type: cell-based, human; conditions: replicates
[7] = tested on: DU145 cells; experiment: as above; type: cell-based, human
[8] = tested on: PC-3 xenograft; experiment: In vivo antitumor activity, PC-3 xenograft mouse model; design: species or system BALB/c nude mice; conditions: for body weight (Figure S10b): 100 mg/kg (block headed at r39); for tumor volume (Figure S10a): 100 mg/kg, in mm³ (unit assumed); for tumor weight (Figure S10c): individual mice
[9] = tested on: DU145 xenograft; experiment: H&E and Ki67 staining of xenograft tumor tissues; type: in vivo, BALB/c nude mice; conditions: replicates

## CCN1CCN(C(=O)c2ccc(Nc3ncc(F)c(-c4ccc5nc(N(C)C)sc5c4)n3)nc2)CC1 [YK-2-69]
[1]; 5 uM
  optical density: 0.876 and 0.868 and 0.803
[1]; 20 uM
  Relative proliferation rate (%) mean: 54.7483%
  Relative proliferation rate (%): 54.734% and 48.1304% and 61.3806%
  optical density: 0.502 and 0.541 and 0.414
[1]; 80 uM
  Relative proliferation rate (%) mean: 72.5701%
  Relative proliferation rate (%): 72.5879% and 64.5254% and 80.597%
  optical density: 0.304 and 0.37 and 0.208
[1]; RWPE-1 cells
  inhibitory activity against proliferation (in words): weak inhibitory activity
[2]; 22Rv1, 0.5 μM
  Colony formation (cell number): 93 cell number and 88 cell number and 94 cell number
[2]; 22Rv1, 1 μM
  Colony formation (cell number): 40 cell number and 56 cell number and 58 cell number
[2]; 22Rv1, 2 μM
  Colony formation (cell number): 10 cell number and 9 cell number and 13 cell number
[3]; DU145, 2 μM
  Colony formation (cell number): 70 cell number and 67 cell number and 77 cell number
[3]; DU145, 4 μM
  Colony formation (cell number): 40 cell number and 38 cell number and 35 cell number
[3]; DU145, 8 μM
  Colony formation (cell number): 15 cell number and 12 cell number and 10 cell number
[4]; 1 µM
  Colony formation (cell number): 40 cell number and 45 cell number and 35 cell number
[4]; 2 µM
  Colony formation (cell number): 10 cell number and 12 cell number and 9 cell number
[4]; 4 µM
  Colony formation (cell number): 5 cell number and 6 cell number
[5]; 22Rv1, 0.5 μM
  Cell invasion (cell number): 990 cell number and 970 cell number and 1020 cell number
[5]; 22Rv1, 1 μM
  Cell invasion (cell number): 730 cell number and 680 cell number and 710 cell number
[5]; 22Rv1, 2 μM
  Cell invasion (cell number): 520 cell number and 490 cell number and 509 cell number
[5]; 22Rv1 cells, dose-dependent
  invasion (in words): remarkably inhibited the migration and invasion
[6]; 22Rv1, 1 μM
  Relative mRNA levels CCNG2: 2.36 and 2.34 and 2.68
  Relative mRNA levels GRWD1: 0.83 and 0.9 and 0.89
  Relative mRNA levels RRS1: 0.87 and 0.83 and 0.82
  Relative mRNA levels YPEL3: 1.18 and 1.26 and 1.19
[6]; 22Rv1, 2 μM
  Relative mRNA levels CCNG2: 4.36 and 5.2 and 4.62
  Relative mRNA levels GRWD1: 0.79 and 0.78 and 0.7
  Relative mRNA levels RRS1: 0.73 and 0.77 and 0.71
  Relative mRNA levels YPEL3: 1.68 and 1.63 and 1.74
[6]; 22Rv1, 4 μM
  Relative mRNA levels CCNG2: 8.94 and 9.9 and 8.92
  Relative mRNA levels GRWD1: 0.69 and 0.68 and 0.62
  Relative mRNA levels RRS1: 0.63 and 0.68
  Relative mRNA levels YPEL3: 2.48 and 2.53 and 2.64
[7]; DU145, 2 μM
  Relative mRNA levels CCNG2: 1.61 and 1.59 and 1.77
  Relative mRNA levels GRWD1: 0.86 and 0.88 and 0.9
  Relative mRNA levels RRS1: 0.88 and 0.78 and 0.86
  Relative mRNA levels YPEL3: 1.25 and 1.23 and 1.29
[7]; DU145, 4 μM
  Relative mRNA levels CCNG2: 1.7 and 1.66 and 1.89
  Relative mRNA levels GRWD1: 0.79 and 0.71
  Relative mRNA levels RRS1: 0.68 and 0.7 and 0.71
  Relative mRNA levels YPEL3: 2.68 and 2.63 and 2.74
[7]; DU145, 8 μM
  Relative mRNA levels CCNG2: 1.91 and 1.83 and 2.04
  Relative mRNA levels GRWD1: 0.58 and 0.63 and 0.67
  Relative mRNA levels RRS1: 0.58 and 0.65
  Relative mRNA levels YPEL3: 3.48 and 3.53 and 3.64
[8]; day 1, individual mice
  body weight (Figure S10b): 19.2 (2×) and 18.5 and 18.7 and 18.4 and 18.1 and 19.9 and 20.5
  tumor volume (Figure S10a): 77.4864 and 92.5301 and 97.1283 and 101.268 and 98.0398 and 97.468 and 73.886 and 80.3144
[8]; day 3, individual mice, in g (unit assumed)
  body weight (Figure S10b): 19.3 and 18.8 and 19.1 and 19.6 and 18.7 and 18.5 and 20.2 and 21
[8]; day 5, individual mice, in g (unit assumed)
  body weight (Figure S10b): 19.6 and 19.3 and 19.5 and 20 and 19 and 18.8 and 20.4 and 21.3
[8]; day 7, individual mice
  body weight (Figure S10b): 19.7 and 19.2 (2×) and 19.8 and 20.2 and 19.1 and 20.7 and 21.6
  tumor volume (Figure S10a): 219.658 and 275.568 and 365.875 and 209.513 and 299.159 and 296.64 and 231.386 and 330.578
[8]; day 9, individual mice
  body weight (Figure S10b): 19.9 and 19.6 (2×) and 20.3 and 20.4 and 19.2 and 21.1 and 22.1
  tumor volume (Figure S10a): 329.162 and 379.473 and 478.428 and 304.962 and 429.596 and 486.382 and 340.579 and 484.285
[8]; day 11, individual mice, in g (unit assumed)
  body weight (Figure S10b): 20.2 and 19.8 and 20.6 and 20.7 and 19.9 and 19.6 and 21.5 and 22.4
[8]; day 13, individual mice, in g (unit assumed)
  body weight (Figure S10b): 20.7 and 20.1 and 20.9 and 21 and 20.2 and 19.9 and 22 and 22.7
[8]; day 15, individual mice, in g (unit assumed)
  body weight (Figure S10b): 21.2 and 20.6 and 21.3 and 21.4 and 20.5 and 20.2 and 22.4 and 23.1
[8]; day 17, individual mice
  body weight (Figure S10b): 21.5 (2×) and 20.9 and 21.7 and 20.7 and 20.5 and 22.6 and 23.4
  tumor volume (Figure S10a): 566.789 and 632.783 and 710.893 and 478.638 and 663.313 and 687.885 and 541.191 and 725.155
[8]; day 19, individual mice
  body weight (Figure S10b): 21.6 and 21.3 and 22.1 and 21.8 and 20.9 (2×) and 22.9 and 23.6
  tumor volume (Figure S10a): 626.915 and 695.75 and 762.842 and 529.26 and 724.582 and 714.002 and 593.545 and 775.769
[8]; day 21, individual mice, in g (unit assumed)
  body weight (Figure S10b): 21.9 and 21.7 and 22.5 and 22 and 21.1 and 20.9 and 23.3 and 24.1
[8]; day 23, individual mice, in g (unit assumed)
  body weight (Figure S10b): 22.2 and 21.9 and 22.8 and 22.5 and 21.6 and 21.2 and 23.7 and 24.4
[8]; day 25, individual mice, in g (unit assumed)
  body weight (Figure S10b): 22.4 and 22.2 and 23 and 22.9
[8]; day 3, individual mice
  tumor volume (Figure S10a): 115.765 and 144.425 and 170.933 and 124.316 and 162.987 and 146.332 and 130.957 and 150.238
[8]; day 5, individual mice
  tumor volume (Figure S10a): 154.192 and 209.47 and 269.793 and 167.67 and 219.907 and 205.492 and 169.178 and 227.654
[8]; day 11, individual mice
  tumor volume (Figure S10a): 425.31 and 450.313 and 557.222 and 355.841 and 497.266 and 558.451 and 389.654 and 598.443
[8]; day 13, individual mice
  tumor volume (Figure S10a): 470.277 and 505.24 and 614.643 and 398.947 and 552.456 and 554.825 and 438.407 and 647.336
[8]; day 15, individual mice
  tumor volume (Figure S10a): 505.825 and 567.155 and 666.998 and 434.631 and 595.348 and 608.437 and 469.076 and 655.028
[8]; day 21, individual mice
  tumor volume (Figure S10a): 664.022 and 757.202 and 792.305 and 567.096 and 783.549 and 751.035 and 675.845 and 837.844
[8]; day 23, individual mice
  tumor volume (Figure S10a): 712.611 and 799.725 and 853.619 and 600.587 and 832.37 and 731.016 and 739.798 and 963.73
[8]; day 25, individual mice
  tumor volume (Figure S10a): 761.381 and 859.669 and 897.54 and 641.932
[8]; High dose, in g (unit assumed)
  tumor weight (Figure S10c): 0.61 and 0.52 and 0.5 and 0.55 and 0.62 and 0.53 and 0.74 and 0.7
[8]; Low dose, in g (unit assumed)
  tumor weight (Figure S10c): 0.79 and 0.89 and 1.1 and 0.91 and 0.71 and 0.92 and 0.81 and 0.88
[8]; PC-3 xenograft, 100 or 200 mg/kg orally every day
  tumor growth (in words): significantly inhibited tumor growth
[8]; PC-3 xenograft, high dose (200 mg/kg)
  tumor volume (in words): decrease tumor volume
[9]; DU145, High dose
  Positive rate ( % ) (Fig. 7f): 15.32% and 14.77% and 16.1%
[9]; DU145, Low dose
  Positive rate ( % ) (Fig. 7f): 20.24% and 19.5% and 21.1%
